Tests used:
Experiment in all cases: Test C preemergence
Format in all cases: in vivo
Details in all cases: scale 0 to 100, 0 no effect, 100 complete control
[1] = tested on: ragweed (common ragweed, Ambrosia elatior)
From the text: (§1) Seeds of plant species selected from blackgrass (Alopecurus myosuroides), ryegrass, Italian (Italian ryegrass, Lolium multiflorum), wheat (winter wheat, Triticum aestivum), Galium (catchweed bedstraw, Galium aparine), corn (Zea mays), crabgrass, large (large crabgrass, Digitaria sanguinalis), foxtail, giant (giant foxtail, Setaria faberii), johnsongrass (Sorghum halepense), lambsquarters (Chenopodium album), morningglory (Ipomoea coccinea), nutsedge, yellow (yellow nutsedge, Cyperus esculentus), pigweed (Amaranthus retroflexus), ragweed (common ragweed, Ambrosia elatior), soybean (Glycine max), barnyardgrass (Echinochloa crus-galli), oilseed rape (Brassica napus), waterhemp (common waterhemp, Amaranthus rudis) and velvetleaf (Abutilon theophrasti) were planted into a blend of loam soil and sand and treated preemergence with test chemicals formulated in a non-phytotoxic solvent mixture which included a surfactant.
(§2) At the same time, plants selected from these crop and weed species and also Kochia (Kochia scoparia), oat, wild (wild oat, Avena fatua), and chickweed (common chickweed, Stellaria media) were planted in pots containing Sunshine Redi-Earth® planting medium comprising spaghnum peat moss, vermiculite, starter nutrients and dolomitic limestone and treated with postemergence applications of test chemicals formulated in the same manner. Plants ranged in height from 2 to 18 cm (1- to 4-leaf stage) for postemergence treatments. Treated plants and controls were maintained in a greenhouse for 13 to 15 d, after which time all species were compared to controls and visually evaluated. Plant response ratings, summarized in Table C, are based on a scale of 0 to 100 where 0 is no effect and 100 is complete control. A dash (-) response means no test result.

[2] = tested on: nutsedge, yellow (yellow nutsedge, Cyperus esculentus)
From the text: as §1, §2

[3] = tested on: corn (Zea mays)
From the text: as §1, §2

[4] = tested on: blackgrass (Alopecurus myosuroides)
From the text: as §1, §2

[5] = tested on: oilseed rape (Brassica napus)
From the text: as §1, §2

[6] = tested on: pigweed (Amaranthus retroflexus)
From the text: as §1, §2

[7] = tested on: crabgrass, large (large crabgrass, Digitaria sanguinalis)
From the text: as §1, §2

[8] = tested on: velvetleaf (Abutilon theophrasti)
From the text: as §1, §2

[9] = tested on: Galium (catchweed bedstraw, Galium aparine)
From the text: as §1, §2

[10] = tested on: foxtail, giant (giant foxtail, Setaria faberii)
From the text: as §1, §2

[11] = tested on: lambsquarters (Chenopodium album)
From the text: as §1, §2

[12] = tested on: johnsongrass (Sorghum halepense)
From the text: as §1, §2

[13] = tested on: waterhemp (common waterhemp, Amaranthus rudis)
From the text: as §1, §2

[14] = tested on: ryegrass, Italian (Italian ryegrass, Lolium multiflorum)
From the text: as §1, §2

[15] = tested on: soybean (Glycine max)
From the text: as §1, §2

[16] = tested on: barnyardgrass (Echinochloa crus-galli)
From the text: as §1, §2

[17] = tested on: morningglory (Ipomoea coccinea)
From the text: as §1, §2

[18] = tested on: wheat (winter wheat, Triticum aestivum)
From the text: as §1, §2

## O=C1NCC(c2ccc(Br)cc2)C1C(=O)Nc1cccc(F)c1F (stereo not shown) [Compound 446]
[1]; 31 g ai/ha
  Plant response rating, Ragweed: 25
[1]; 62 g ai/ha
  Plant response rating, Ragweed: 40
[1]; 125 g ai/ha
  Plant response rating, Ragweed: 75
[1]; 250 g ai/ha
  Plant response rating, Ragweed: 85
[2]; 31 g ai/ha
  Plant response rating, Nutsedge, Yellow: 0
[2]; 62 g ai/ha
  Plant response rating, Nutsedge, Yellow: 0
[2]; 125 g ai/ha
  Plant response rating, Nutsedge, Yellow: 0
[2]; 250 g ai/ha
  Plant response rating, Nutsedge, Yellow: 0
[3]; 31 g ai/ha
  Plant response rating, Corn: 0
[3]; 62 g ai/ha
  Plant response rating, Corn: 0
[3]; 125 g ai/ha
  Plant response rating, Corn: 0
[3]; 250 g ai/ha
  Plant response rating, Corn: 10
[4]; 31 g ai/ha
  Plant response rating, Blackgrass: 0
[4]; 62 g ai/ha
  Plant response rating, Blackgrass: 0
[4]; 125 g ai/ha
  Plant response rating, Blackgrass: 50
[4]; 250 g ai/ha
  Plant response rating, Blackgrass: 55
[5]; 31 g ai/ha
  Plant response rating, Oilseed Rape: 0
[5]; 62 g ai/ha
  Plant response rating, Oilseed Rape: 85
[5]; 125 g ai/ha
  Plant response rating, Oilseed Rape: 90
[5]; 250 g ai/ha
  Plant response rating, Oilseed Rape: 95
[6]; 31 g ai/ha
  Plant response rating, Pigweed: 50
[6]; 62 g ai/ha
  Plant response rating, Pigweed: 75
[6]; 125 g ai/ha
  Plant response rating, Pigweed: 80
[6]; 250 g ai/ha
  Plant response rating, Pigweed: 85
[7]; 31 g ai/ha
  Plant response rating, Crabgrass, Large: 100
[7]; 62 g ai/ha
  Plant response rating, Crabgrass, Large: 100
[7]; 125 g ai/ha
  Plant response rating, Crabgrass, Large: 100
[7]; 250 g ai/ha
  Plant response rating, Crabgrass, Large: 100
[8]; 62 g ai/ha
  Plant response rating, Velvetleaf: 0
[8]; 125 g ai/ha
  Plant response rating, Velvetleaf: 10
[8]; 250 g ai/ha
  Plant response rating, Velvetleaf: 30
[9]; 31 g ai/ha
  Plant response rating, Galium: 0
[9]; 62 g ai/ha
  Plant response rating, Galium: 90
[9]; 125 g ai/ha
  Plant response rating, Galium: 90
[9]; 250 g ai/ha
  Plant response rating, Galium: 95
[10]; 31 g ai/ha
  Plant response rating, Foxtail, Giant: 85
[10]; 62 g ai/ha
  Plant response rating, Foxtail, Giant: 90
[10]; 125 g ai/ha
  Plant response rating, Foxtail, Giant: 90
[10]; 250 g ai/ha
  Plant response rating, Foxtail, Giant: 95
[11]; 31 g ai/ha
  Plant response rating, Lambsquarters: 60
[11]; 62 g ai/ha
  Plant response rating, Lambsquarters: 50
[11]; 125 g ai/ha
  Plant response rating, Lambsquarters: 55
[11]; 250 g ai/ha
  Plant response rating, Lambsquarters: 95
[12]; 31 g ai/ha
  Plant response rating, Johnsongrass: 20
[12]; 62 g ai/ha
  Plant response rating, Johnsongrass: 40
[12]; 125 g ai/ha
  Plant response rating, Johnsongrass: 50
[12]; 250 g ai/ha
  Plant response rating, Johnsongrass: 65
[13]; 62 g ai/ha
  Plant response rating, Waterhemp: 100
[13]; 125 g ai/ha
  Plant response rating, Waterhemp: 80
[13]; 250 g ai/ha
  Plant response rating, Waterhemp: 98
[14]; 62 g ai/ha
  Plant response rating, Ryegrass, Italian: 0
[14]; 125 g ai/ha
  Plant response rating, Ryegrass, Italian: 0
[14]; 250 g ai/ha
  Plant response rating, Ryegrass, Italian: 45
[15]; 62 g ai/ha
  Plant response rating, Soybean: 20
[15]; 125 g ai/ha
  Plant response rating, Soybean: 10
[15]; 250 g ai/ha
  Plant response rating, Soybean: 25
[16]; 31 g ai/ha
  Plant response rating, Barnyardgrass: 90
[16]; 62 g ai/ha
  Plant response rating, Barnyardgrass: 90
[16]; 125 g ai/ha
  Plant response rating, Barnyardgrass: 90
[16]; 250 g ai/ha
  Plant response rating, Barnyardgrass: 95
[17]; 31 g ai/ha
  Plant response rating, Morningglory: 0
[17]; 62 g ai/ha
  Plant response rating, Morningglory: 0
[17]; 125 g ai/ha
  Plant response rating, Morningglory: 0
[17]; 250 g ai/ha
  Plant response rating, Morningglory: 0
[18]; 62 g ai/ha
  Plant response rating, Wheat: 0
[18]; 125 g ai/ha
  Plant response rating, Wheat: 0
[18]; 250 g ai/ha
  Plant response rating, Wheat: 30
